Assay results from ChEMBL document CHEMBL1159053, “Synthesis and antifungal activities in vitro of novel pyrazino [2,1-a] isoquinolin derivatives” (2010).
In brackets after ≈: the same amount, converted by molar mass.

Experiments:
Format in all cases: functional
[1] = system: Trichophyton rubrum; test: Antifungal activity against Trichophyton rubrum by serial dilution method
[2] = system: Cryptococcus neoformans; test: Antifungal activity against Cryptococcus neoformans by serial dilution method
[3] = system: Aspergillus fumigatus; test: Antifungal activity against Aspergillus fumigatus by serial dilution method
[4] = system: Candida albicans; test: Antifungal activity against Candida albicans by serial dilution method
[5] = system: Nannizzia gypsea; test: Antifungal activity against Microsporum gypseum by serial dilution method

SMILES	MIC80 [1] [µg/mL]	MIC80 [2] [µg/mL]	MIC80 [3] [µg/mL]	MIC80 [4] [µg/mL]	MIC80 [5] [µg/mL]
CCCCCCCCCCN1CCc2cc(O)c(O)cc2C1	32 (≈ 105 µM)	16 (≈ 52.4 µM)	64 (≈ 210 µM)	64 (≈ 210 µM)	16 (≈ 52.4 µM)
CCCCN1CCN2CCc3ccc(F)cc3C2C1 (stereo not given)	> 64	> 64	> 64	64 (≈ 244 µM)	4 (≈ 15.2 µM)
CCCCCCCCN1CC(=O)N2CCc3ccc(F)cc3C2C1 (stereo not given)	16 (≈ 48.1 µM)	16 (≈ 48.1 µM)	32 (≈ 96.3 µM)	> 64	16 (≈ 48.1 µM)
CCCCN1CC(=O)N2CCc3cc(OC)c(OC)cc3C2C1 (stereo not given)	> 64	16 (≈ 50.2 µM)	> 64	> 64	> 64
CCCCN1CC(=O)N2CCc3ccc(F)cc3C2C1 (stereo not given)	64 (≈ 232 µM)	32 (≈ 116 µM)	> 64	> 64	> 64
CCCCCCCCN1CCN2CCc3cc(O)c(O)cc3C2C1 (stereo not given)	16 (≈ 48.1 µM)	2 (≈ 6.02 µM)	64 (≈ 192 µM)	16 (≈ 48.1 µM)	32 (≈ 96.2 µM)
CCCCCCCCCN1CC(=O)N2CCc3cc(OC)c(OC)cc3C2C1 (stereo not given)	32 (≈ 82.4 µM)	4 (≈ 10.3 µM)	32 (≈ 82.4 µM)	64 (≈ 165 µM)	2 (≈ 5.15 µM)
CCCCCCCCN1CCN2CCc3cc(OC)c(OC)cc3C2C1 (stereo not given)	16 (≈ 44.4 µM)	8 (≈ 22.2 µM)	8 (≈ 22.2 µM)	32 (≈ 88.8 µM)	4 (≈ 11.1 µM)
CCCCCCCCN1CCN2CCc3ccc(F)cc3C2C1 (stereo not given)	8 (≈ 25.1 µM)	4 (≈ 12.6 µM)	32 (≈ 100 µM)	16 (≈ 50.2 µM)	4 (≈ 12.6 µM)
CCCCCCCCCN1CCN2CCc3cc(O)c(O)cc3C2C1 (stereo not given)	8 (≈ 23.1 µM)	4 (≈ 11.5 µM)	64 (≈ 185 µM)	8 (≈ 23.1 µM)	8 (≈ 23.1 µM)
CCCCCCCCCCCCN1CC(=O)N2CCc3cc(OC)c(OC)cc3C2C1 (stereo not given)	> 64	32 (≈ 74.3 µM)	> 64	> 64	64 (≈ 149 µM)
CCCCN1CCN2CCc3cc(O)c(O)cc3C2C1 (stereo not given)	> 64	4 (≈ 14.5 µM)	> 64	> 64	> 64
CCCCCCCCN1CC(=O)N2CCc3cc(OC)c(OC)cc3C2C1 (stereo not given)	32 (≈ 85.4 µM)	8 (≈ 21.4 µM)	64 (≈ 171 µM)	16 (≈ 42.7 µM)	8 (≈ 21.4 µM)
CCCCCCCCCN1CC(=O)N2CCc3ccc(F)cc3C2C1 (stereo not given)	4 (≈ 11.5 µM)	2 (≈ 5.77 µM)	16 (≈ 46.2 µM)	32 (≈ 92.4 µM)	0.5 (≈ 1.44 µM)
CCCCCCCCCN1CCN2CCc3cc(OC)c(OC)cc3C2C1 (stereo not given)	8 (≈ 21.4 µM)	4 (≈ 10.7 µM)	8 (≈ 21.4 µM)	32 (≈ 85.4 µM)	2 (≈ 5.34 µM)
CCCCCCCCCN1CCN2CCc3ccc(F)cc3C2C1 (stereo not given)	8 (≈ 24.1 µM)	4 (≈ 12 µM)	16 (≈ 48.1 µM)	8 (≈ 24.1 µM)	2 (≈ 6.01 µM)
CCCCCCCCCCCCN1CCN2CCc3cc(OC)c(OC)cc3C2C1 (stereo not given)	> 64	16 (≈ 38.4 µM)	> 64	> 64	32 (≈ 76.8 µM)
CCCCCCCCCCCCN1CCN2CCc3ccc(F)cc3C2C1 (stereo not given)	64 (≈ 171 µM)	64 (≈ 171 µM)	> 64	> 64	4 (≈ 10.7 µM)
CCCCCCCCCCCCN1CC(=O)N2CCc3ccc(F)cc3C2C1 (stereo not given)	64 (≈ 165 µM)	> 64	32 (≈ 82.4 µM)	> 64	64 (≈ 165 µM)
CCCCCCCCCCCCN1CCN2CCc3cc(O)c(O)cc3C2C1 (stereo not given)	16 (≈ 41.2 µM)	16 (≈ 41.2 µM)	64 (≈ 165 µM)	64 (≈ 165 µM)	16 (≈ 41.2 µM)
CCCCN1CCN2CCc3cc(OC)c(OC)cc3C2C1 (stereo not given)	> 64	> 64	> 64	> 64	> 64
OC(Cn1cncn1)(Cn1cncn1)c1ccc(F)cc1F [FLUCONAZOLE]	32 (≈ 104 µM)	4 (≈ 13.1 µM)	> 64	2 (≈ 6.53 µM)	2 (≈ 6.53 µM)
